# Entries after “also recorded” stand apart in the source; their conditions may differ.
# Tests used:
# [1] = test system: primary human lung fibroblasts (HLFs); experiment: Activation of human lung fibroblasts on 3 kPa hydrogels by HBEC conditioned media; assay type: cell-based; conditions: HLFs in IPF conditioned HBEC media supplemented with inhibitor
# Protocol: Culture and treatment of HLFs: Primary human lung fibroblasts (HLFs) were obtained from control lungs not suitable for transplantation at National Jewish Health. Briefly, pieces of tissue were placed into a tissue-culture dish and weighed down by a coverslip. Cells were cultured in DMEM (Corning, Corning, New York, 10-013-cv) supplemented with L-glutamine (25-005-cl), penicillin/streptomycin (Corning, Corning, New York, 30-002-c1), and 10% fetal bovine serum (ATCC®, Manassas, Virginia, 30-2020). These fibroblasts were then sub-cultured in t-75 flasks. All HLFs used in this study (N=4) were seeded at passage 3. […]
# Quantitative RT-PCR Analysis: Total RNA was extracted using RNeasy® Mini kit (Qiagen, Hilden, Germany) and quantified by NanoDrop™ (ThermoFisher Scientific™, Waltham, Massachusetts).Reverse transcription was completed using the High Capacity cDNA Reverse Transcription Kit (Applied Biosystems™, Thermo Fisher Scientific™, Waltham, Massachusetts). […]
# Immunofluorescence and cell number quantification for HLF experiments: For fluorescence quantification, (i.e., vimentin or alpha-SMA) images were all processed using the same settings. Fluorescence intensity was determined by channel separation and measurement of mean gray value for the field and normalized to total cell number. Cell number was determined by automated counting in ImageJ. […]
# [2] = test system: IPF HBECs; experiment: Induction of the unjammed-to-jammed transition (UJT) in IPF HBECs; assay type: cell-based, human; conditions: day 14 IPF HBECs
# Description: (§1) Epithelial Cell Culture: Primary human bronchial epithelial cells (HBECs) were obtained from two sources (1) provided by Dr. Hong Wei Chu at National Jewish Health, or (2) lung transplant collection at the University of Colorado Hospital (IRB protocol: 11-1664 or 18-0572). Epithelial cells from bronchial brushes or CT-guided dissection were expanded to passage 2 before being cultured at air liquid interface (ALI). Control (N=11), IPF (N=6), and COPD (N=3) were age matched and controls had no history of chronic lung disease (Table 1). Cells were seeded on 24-Transwell plates (Corning, Corning, New York, 3470) coated with type I collagen (Corning, Corning, New York, 354236) and maintained under submerged conditions for five to seven days until the cells reached confluence. Culture media was a 1:1 mixture of DMEM and BEBM (Lonza, Basel, Switzerland, CC170) supplemented with retinoic acid (Sigma-Aldrich, Germany, R-2625) nystatin (Sigma-Aldrich, Germany N1638), and bovine serum albumin (FisherSci, Thermo Fisher Scientific, Waltham, Massachusetts BP9703100). Once confluent, apical media was removed and maintained at ALI. HBECs began recapitulating the in vivo airway, with production of mucus (6-9 days after establishing ALI) and development of a pseudostratified epithelium. Cells were switched to a starvation media (lacking supplemental epidermal growth factor, hydrocortisone, and bovine pituitary extract) 24 hours prior to experimentation.
# (§2) For inhibitor, activator, and ligand treatments HBECs were cultured in a starvation media in the absence of EGF, hydrocortisone, and bovine pituitary extract for 24 hours prior to treatment initiation. Cells were then treated for 2-4 hours (with exception of AREG neutralizing antibody which was maintained in the culture media), media was aspirated, the wells were washed with warm PBS and then replaced with fresh starvation media without inhibitor/activator/ligand present, and subsequently imaged. For experiments that required subsequent media changes (96 hour) cells fresh starvation media was changed 48 hours afterwards.
# (§3) Live Cell Imaging and Dynamics Measurement: To assess cellular dynamics, time-lapse microscopy and subsequent analysis were completed. Two imaging schemes were utilized: (1) images were taken every 5 minutes for 200 minutes during HBEC differentiation; (2) images were taken every 20 minutes for 48, 96, or 144 hours after HBEC experimental intervention. Phase contrast images were acquired on a Keyence BZ-X810 with a stage incubator (37° C., 5% CO2). Dynamic analysis followed previously published workflows (10-12, 22). Briefly, using phase contrast images instantaneous velocities were mapped by particle image velocimetry utilizing open source PIVLab on MATLAB. Velocity fields were obtained with 2 passes (64×64 and 32×32 pixel size interrogation window with 50% overlap) with a pixel size of 0.75488 μm using a Fast Fourier Transformation method. Trajectories from the PIV were seeded onto a grid and obtained via forward-integration of subsequent fields. These values were then used to determine mean-squared-displacement (MSD) and self-overlap order parameter (Q): MSD(Δt)= ? ri(t+Δt)−ri(t)|2 ? and Q(Δt)=N−1ΣwiNi=1 as previously published. Instantaneous room mean squared velocity (VRMS) of the monolayer was obtained as previously published: VRMS(t)=√1MΣ ? |v(t)2 ? jMj=1
# Cell Shape Analysis: Cell shape measurements were achieved via cell border delineation by F-actin immunofluorescence. Images were segmented utilizing SeedWater Segmenter. Similar to previously published workflows, we segmented images which were subsequently analyzed in ImageJ for the shape index (q=Perimeter√Area) and aspect ratio (major and minor axis) for all cells within a given field of view. For each experimental condition an n≥3 was used with at least 3 independent wells per donor per treatment condition. […]
# [3] = test system: proximal, jammed cultures; experiment: IL-6 family cytokine induced unjamming of proximal airway epithelial cultures; assay type: cell-based, human; conditions: proximal cultures pre-treated, then stimulated with IL-6 family cytokines
# Protocol: as §3, with “These values were then used to determine mean-squared-displacement (MSD) and self-overlap order parameter (Q): MSD(Δt)= ? ri(t+Δt)−ri(t)|2 ? and Q(Δt)=N−1ΣwiNi=1 as previously published. Instantaneous room mean squared velocity (VRMS) of the monolayer was obtained as previously published: VRMS(t)=√1MΣ ? |v(t)2 ? jMj=1” left out
# Cell Shape Analysis: Cell shape measurements were achieved via cell border delineation by F-actin immunofluorescence. […] Similar to previously published workflows, we segmented images which were subsequently analyzed in ImageJ for the shape index (q=Perimeter√Area) and aspect ratio (major and minor axis) for all cells within a given field of view. […]
# [4] = test system: COPD HBECs; experiment: Induction of jamming in COPD HBECs; assay type: cell-based, human
# Description: as §1
# as §2, with “afterwards. […]” for “afterwards.”
# [5] = test system: IPF HBECs; experiment: YAP immunofluorescence in IPF HBECs; assay type: cell-based, human; conditions: IPF HBECs 48 hours after treatment
# Protocol: Immunofluorescence staining: Cells were fixed with 4% paraformaldehyde in PBS with calcium and magnesium for 30 minutes at room temperature. Cells were then washed with PBS and subsequently permeabilized (Triton™-X, at 0.1%) and blocked with 5% bovine serum albumin in PBS for 1 hour at room temperature. Cells were then incubated for >16 hours at 4 degrees with primary antibodies. Primary antibodies were aspirated, and cells were washed with PBS+0.1% Tween-20 at room temperature. Cells were then incubated for 1 hour at room temperature with secondary antibodies (1:500) and/or Phalloidin-iFluor™ 488 1:2000. Cells were stained with 4′,6-diamidino-2-phenylindole at 1:20000 (BioLegend®, San Diego, California, 422801). Subsequently, transwell membranes, or hydrogels, were removed from the well and mounted on glass slides with Fluoromount-G® (SouthernBiotech™, Birmingham, Alabama, 0100-01). Slides were then visualized using an Olympus BX63 microscope (Olympus, Tokyo, Japan).
# Immunofluorescence and cell number quantification for HBEC experiments: For total fluorescence quantification (i.e., ERBB2), all images were processed in the same manner with the same microscopy settings. To determine mean fluorescence the channel of interest was separated in ImageJ, and the mean gray value was measured for the field of view and normalized by the total number of cells. Cell counting was achieved by taking 40×images and manually counting all nuclei in a field of view (approximately 200-300). The number of cells also expressing the marker of interested were then counted and normalized by the total number of cells per field. For each experiment a biological n≥3 was used with at least 5 fields of view per well and at least 2 wells being counted in total per donor.
# [6] = test system: IPF HBECs; experiment: Gene expression of ERBB receptors, YAP target genes and MUC5B in IPF HBECs; assay type: cell-based, human; conditions: IPF HBECs after inhibition
# Protocol: Quantitative RT-PCR Analysis: Total RNA was extracted using RNeasy® Mini kit (Qiagen, Hilden, Germany) and quantified by NanoDrop™ (ThermoFisher Scientific™, Waltham, Massachusetts).Reverse transcription was completed using the High Capacity cDNA Reverse Transcription Kit (Applied Biosystems™, Thermo Fisher Scientific™, Waltham, Massachusetts). Gene expression was analyzed by using TaqMan® Advanced Master Mix (Thermo Fisher Scientific™, Waltham, Massachusetts and TaqMan® assays. They were subsequently run in triplicate on the ViiA™ 7 Real-Time machine (Thermo Fisher Scientific™, Waltham, Massachusetts). Primer IDs were: β-ACTIN, Hs01060665_g1; MUC5B, Hs00861595_m1; MUC5AC, Hs01365616_m1; EGFR, Hs0176090_m1; ERBB2, Hs01001580_m1; ZEB1, Hs00232783_m1; SNAI1, Hs00195591_m1; VIM, Hs00185584_m1; CTGF, Hs00170014_m1; AREG, Hs00950669_m1; FN1, Hs01549976_m1; PDGFRA, Hs00998018_m1; PDGFA, Hs00234994_m1; PDGFRB, Hs01019589_m1; PDGFB, Hs00966522_m1; TGFBRI, Hs00610320_m1; TGFBI, Hs00998133_m1; COL1A1, Hs00164004_m1; ACTA2, Hs00426835; MMP3, Hs00968305_m1; MMP9, Hs00957562_m1; TIMP1, Hs01092512_g1; and TIMP2, Hs00234278_m1.
Molecule,fibroblast activation [1],rescue of increase in cell number and pro-fibrotic gene expression [1],induction of the UJT (jamming) in IPF epithelia [2],effect of inhibitor pre-treatment on IL-6 family cytokine induced unjamming [3],induction of jamming in COPD epithelia [4],YAP nuclear exclusion [5],"transcription of ERBB receptors, YAP target genes and MUC5B [6]"
NC(=O)c1ccc(-c2nc(-c3ccc4c(c3)OCO4)c(-c3ccccn3)[nH]2)cc1 [SB431542],reduced fibroblast activation,none of these treatments alone were able to fully rescue the increase in cell number or the associated pro-fibrotic gene expression,–,–,–,–,–
O=[N+]([O-])c1ccc2c(c1)S(=O)(=O)C=C2 [Stattic],–,–,did not induce the UJT,JAK/STAT signaling was dispensable for IL-6 family cytokine induced unjamming in proximal cultures,–,–,–
Verteporfin,–,–,halted migration and induced a cobblestone appearance in the epithelia,SRC and YAP were essential for the acquisition of this fluid-like phenotype,not responsive to ERBB-YAP inhibition,results in YAP nuclear exclusion,"reduced the transcription of ERBB receptors, YAP target genes, and MUC5B nearly back to control levels; also recorded: decreases 738 ERBB-YAP target gene expression"
